Measured values reported in patent US11413278B2, “Compounds and methods for promoting stress resistance” (priority 2015, dated 2022).
Read-outs that look alike come from different tables or passages of the source.

What was measured:
FOXO3 = assay: qPCR analysis of FOXO3-regulated genes; assay type: cell-based, human; settings: for fold induction at 10 µM: Homo sapiens
Procedure, shortened: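 WI-38 cells treated with compound at 10 μM for 24 h, followed by Cells-to-Ct RT-qPCR of FOXO3 target genes normalised to B2M, PPIA and GAPDH. FOXO3 or NRF2 dependence tested by prior 10 nM siRNA knockdown (36 h transfection, compound added ~24 h after replating).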

WI-38 cells = settings: no H2O2 stress, 10 uM; negative control 0.41% ± 0.23%
Description: WI-38 cells were seeded on 384-well plates for 24 hrs and then incubated with small molecules for 24 hrs. […] Images were collected on an INCell Analyzer 2000 (GE) and analyzed with the Developer software.

human PARP1 = biological target: T1, human PARP1 (Homo sapiens, UniProt P09874); assay: PARP inhibitor assay (HT Fluorescent Homogeneous PARP Inhibition Assay Kit); assay type: biochemical; settings: score
T1 construct: purchased Trevigen
T1 sequence (P09874 whole entry): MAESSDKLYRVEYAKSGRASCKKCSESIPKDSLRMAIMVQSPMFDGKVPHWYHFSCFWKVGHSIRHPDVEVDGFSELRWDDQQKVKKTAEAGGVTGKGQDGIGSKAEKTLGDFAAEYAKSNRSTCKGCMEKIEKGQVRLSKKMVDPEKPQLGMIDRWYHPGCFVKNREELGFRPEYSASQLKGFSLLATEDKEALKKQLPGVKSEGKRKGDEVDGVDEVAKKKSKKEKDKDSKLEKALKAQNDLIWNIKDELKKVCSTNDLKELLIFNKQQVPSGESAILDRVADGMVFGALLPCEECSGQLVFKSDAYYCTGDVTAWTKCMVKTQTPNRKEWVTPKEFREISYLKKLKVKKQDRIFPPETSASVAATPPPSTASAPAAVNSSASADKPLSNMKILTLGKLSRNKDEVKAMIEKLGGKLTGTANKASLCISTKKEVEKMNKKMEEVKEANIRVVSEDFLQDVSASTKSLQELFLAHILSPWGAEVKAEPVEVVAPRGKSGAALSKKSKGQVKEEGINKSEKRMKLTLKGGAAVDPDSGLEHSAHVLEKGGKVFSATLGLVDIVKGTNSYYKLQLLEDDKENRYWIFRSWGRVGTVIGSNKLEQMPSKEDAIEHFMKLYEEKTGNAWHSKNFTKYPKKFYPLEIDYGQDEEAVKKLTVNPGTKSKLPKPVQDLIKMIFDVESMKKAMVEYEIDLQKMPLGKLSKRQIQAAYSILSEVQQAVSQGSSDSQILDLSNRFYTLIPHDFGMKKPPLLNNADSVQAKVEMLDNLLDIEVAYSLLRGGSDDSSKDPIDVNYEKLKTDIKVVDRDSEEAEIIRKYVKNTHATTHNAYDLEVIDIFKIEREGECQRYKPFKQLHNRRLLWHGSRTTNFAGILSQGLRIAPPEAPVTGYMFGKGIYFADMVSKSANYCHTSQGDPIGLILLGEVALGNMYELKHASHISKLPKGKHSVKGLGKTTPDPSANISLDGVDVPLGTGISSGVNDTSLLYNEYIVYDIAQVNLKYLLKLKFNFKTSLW
Procedure, shortened: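 Human PARP1 with NAD and activated DNA, compounds at 10 μM final, 30 min at room temperature in dark. Resazurin/diaphorase cycling mix then added for 1 hr in dark before stop buffer; fluorescent homogeneous kit read-out.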

C. elegans = C. elegans lifespan assays (liquid and plate); assay type: in vivo, Caenorhabditis elegans; settings: for ILS at 60 µM / ILS at 66 µM: Caenorhabditis elegans
NRF2 = assay: qPCR analysis of NRF2-regulated genes; assay type: cell-based, human; settings: for fold induction at 10 µM: Homo sapiens
Procedure, shortened: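 WI-38 cells treated with compound at 10 μM for 24 hrs, then processed by Cells-to-Ct for RNA isolation, RT and qPCR of NRF2-regulated genes (HMOX1, NQO1, GCLC, GSTM1). Expression normalized to B2M, PPIA and GAPDH; siRNA knockdown of FOXO3 or NRF2 (10 nM) preceded treatment in some runs.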

For `O=C(/C=C/c1cn(-c2ccccc2)nc1-c1cccnc1)c1ccccc1` [Gr-6B], the “E = Potential FOXO3 Activation” value (FOXO3; 2-point score) was 0, the fold induction at 10 µM (FOXO3; 24 h, Assay 10(m), at 10 uM, qPCR, read-out: Induction of FOXO3-regulated genes: DDB1 normalized fold-change) was 1.19 and the fold induction at 10 µM (FOXO3; 10 μM, 24 hrs, WI-38 cells, qPCR, normalized to B2M, n = 4, read-out: DDB1 expression, normalized fold change (FOXO3-regulated gene)) was 1.19. The fold induction at 10 µM (FOXO3; WI-38 cells, 10 μM, 24 hrs, n=4, qPCR normalized by B2M, read-out: DDB1 Normalized fold change) was 1.19, the fold induction at 10 µM (FOXO3; WI-38 cells, 10 μM, 24 hrs, n=4, qPCR normalized by B2M, read-out: GADD45A Normalized fold change) was 1.26 and the fold induction at 10 µM (FOXO3; WI-38 cells, 10 μM, 24 hrs, n=4, qPCR normalized by B2M, read-out: SESN1 Normalized fold change) was 1.25. It also gave a fold induction at 10 µM (FOXO3; fold change, qPCR, WI-38 cells, 10 μM, 24 hrs, read-out: Summary of effects on FOXO3-regulated genes: DDB1) of 1.19, a fold induction at 10 µM (FOXO3; qPCR, WI-38 cells, 10 μM, n=4, 24 hrs, normalized by B2M, read-out: CAT Normalized fold change) of 1.11 and a fold induction at 10 µM (FOXO3; qPCR, WI-38 cells, 10 μM, n=4, 24 hrs, normalized by B2M, read-out: SOD2 Normalized fold change) of 1.14. For the same compound, the fold induction at 10 µM (FOXO3; qPCR, WI-38 cells, 10 μM, n=4, 24 hrs, normalized by B2M, read-out: TXNIP Normalized fold change) was 0.861, the “K = Sestrin induction” value (FOXO3; score) was 0 and the “E = Potential FOXO3 Activation” value (FOXO3; summary score) was 0. The “Percentage of propidium iodide-positive dead cells (no H2O2 stress treatment), at 10 uM” value (WI-38 cells) was 0.46% ± 0.25%,, the “L = PARP inhibition” value (human PARP1) was 0 and the ILS at 60 µM (C. elegans; in liquid, wild type, with FuDR, 1.0 × 10^9 bacteria/ml, read-out: relative change of mean lifespan vs control, Trial 1) was 3%. It also gave an ILS at 60 µM (C. elegans; in liquid, wild type, with FuDR, 2.5 × 10^9 bacteria/ml, read-out: relative change of mean lifespan vs control, Trial 2) of 0.2%, an ILS at 60 µM (C. elegans; on plate, CF512 temperature-sensitive sterile animals, without FuDR, 1.0 × 10^11 bacteria/ml, read-out: relative change of mean lifespan vs control, Trial 4) of -1.3% and an ILS at 60 µM (C. elegans; on plate, CF512 temperature-sensitive sterile animals, without FuDR, 2.0 × 10^10 bacteria/ml, read-out: relative change of mean lifespan vs control, Trial 3) of 20.6%. The ILS at 66 µM (C. elegans; Assay 2(z), 1.0 × 10^9 bacteria/ml, wild type + FuDR (2012 July), read-out: Lifespan assay in liquid) was 3%, the ILS at 66 µM (C. elegans; Assay 3(aa), 2.5 × 10^9 bacteria/ml, wild type + FuDR, read-out: Lifespan assay in liquid) was 0.2% and the ILS at 66 µM (C. elegans; Assay 4(ab), 2.0 × 10^10 bacteria/ml, CF512 worms, no FuDR, read-out: Lifespan assay on plates) was 20.6%. The ILS at 66 µM (C. elegans; Assay 5(ac), 1.0 × 10^11 bacteria/ml, CF512 worms, no FuDR, read-out: Lifespan assay on plates) was -1.3%, the “O = Life span- extending scores in worms” value (C. elegans; score scale 0 to 2, 4 to 6 independent trials) was 0 and the “M = Lifespan-extending scores in worms” value (C. elegans; summary score) was 0. For the same compound, the “F = Potential NRF2 Activation” value (NRF2; 2-point score) was 2, the “Potential NRF2 Activation (>=2 target genes induced, by >=1.5-fold)” value (NRF2; Assay 13(p)) was “YES” and the fold induction at 10 µM (NRF2; 24 h, Assay 12(o), at 10 uM, qPCR, read-out: Induction of NRF2-regulated genes: HMOX1 normalized fold-change) was 1.88. For the same compound, the fold induction at 10 µM (NRF2; 24 h, Assay 12(o), at 10 uM, qPCR, read-out: Induction of NRF2-regulated genes: NQO1 normalized fold-change) was 1.52, the fold induction at 10 µM (NRF2; rounded fold change, WI-38 cells, 10 μM, 24 hrs (RP11 for Gr-1D, RP29 for Gr-4D), read-out: Summary of effects on NRF2-regulated genes: HMOX1) was 1.88 and the fold induction at 10 µM (NRF2; rounded fold change, WI-38 cells, 10 μM, 24 hrs (RP29 for Gr-4D), read-out: Summary of effects on NRF2-regulated genes: NQO1) was 1.52. For the same compound, the fold induction at 10 µM (NRF2; 10 μM, 24 hrs, WI-38, read-out: Expression of at least two NRF2 target genes) was over 1.5, the fold induction at 10 µM (NRF2; 10 μM, 24 hrs, WI-38 cells, qPCR, normalized to B2M, n = 4, read-out: HMOX1 expression, normalized fold change (NRF2-regulated gene)) was 1.88 and the fold induction at 10 µM (NRF2; 10 μM, 24 hrs, WI-38 cells, qPCR, normalized to B2M, n = 4, read-out: NQO1 expression, normalized fold change (NRF2-regulated gene)) was 1.52. For the same compound, the fold induction at 10 µM (NRF2; WI-38 cells, 10 μM, 24 hrs, n=4, qPCR normalized by B2M, read-out: GCLC Normalized fold change) was 0.797, the fold induction at 10 µM (NRF2; WI-38 cells, 10 μM, 24 hrs, n=4, qPCR normalized by B2M, read-out: GSTM1 Normalized fold change) was 1.22 and the fold induction at 10 µM (NRF2; WI-38 cells, 10 μM, 24 hrs, n=4, qPCR normalized by B2M, read-out: HMOX1 Normalized fold change) was 1.88. For the same compound, the fold induction at 10 µM (NRF2; WI-38 cells, 10 μM, 24 hrs, n=4, qPCR normalized by B2M, read-out: NQO1 Normalized fold change) was 1.52 and the “F = Potential NRF2 Activation” value (NRF2; summary score) was 2.
